Measurements from US20260232720A1, “NEW MEDICAL USE OF SEVUPARIN IN THE TREATMENT OF ENDOTOXEMIA” (Modus Therapeutics AB, priority 2023, published 2026).
Where two headings read alike, the source gives them in different places.

How the values were obtained:
[1] = tested on: healthy volunteers; conditions: for Body temperature / Diastolic blood pressure / Heart rate / NRS feeling sick / Systolic blood pressure: LS Means, IV LPS 1 ng/kg
Description: (§1) A randomized, placebo-controlled study to evaluate the effects of intravenous sevuparin on LPS reactions (first part), and the interaction between subcutaneous enoxaparin and sevuparin on coagulation responses in healthy volunteers (second part), has been performed.
(§2) Objectives for first part of the clinical study: To evaluate the effect of intarvenous (IV) sevuparin on safety and tolerability and inflammatory responses following an intravenous (IV) LPS challenge.
(§3) In the first part of the study, sevuparin (or matching placebo) is administered by IV infusion (bolus loading dose followed by continuous infusion over 6 hours); In the second part of the study, sevuparin and enoxaparin are given by subcutaneous injection.
(§4) The sevuparin dose was as follows in the first part of the study: • Group 1 (sevuparin low dose): loading bolus dose of 0.3 mg/kg bodyweight, followed by IV infusion at 0.08 mg/kg/h; • Group 2 (sevuparin intermediate dose): loading dose of 1 mg/kg bodyweight, followed by IV infusion at 0.25 mg/kg/h; • Group 3 (sevuparin high dose): loading dose of 3 mg/kg bodyweight, followed by IV infusion at 0.75 mg/kg/h.
(§5) In the first part of the study, 1 ng/kg bodyweight of LPS was administered intravenously.
(§6) In the first part of the study, a total of 48 male and female healthy volunteers were enrolled and randomized over 4 treatment groups (sevuparin low, intermediate or high dose or matching placebo). Each treatment group consisted of 12 healthy volunteers. All subjects underwent an intravenous LPS challenge.
(§7) In the first part of the current study, subjects are administered with intravenous LPS 30 min after the start of the infusion of sevuparin on study Day 1. LPS, purified lipopolysaccharide prepared from Escherichia Coli: 113: H10: K negative (U.S. Standard Reference Endotoxin) is used. This LPS batch was manufactured in the US by List Biological Laboratories. All participants received 1 ng/kg E. coli purified LPS, administered as a 2-minute infusion. To ensure that participants stay adequately hydrated, additionally saline (NaCl 0.9%) or glucose/saline was infused (2.5% glucose/0.45% sodium chloride) starting approximately 2 hours before LPS administration at a rate of 750 ml/h, until 6 h afterwards at a rate of 150 ml/h (Hijma et al., 2020). During infusion of study drug or placebo, infused over 6 hours at an infusion rate of 80 mL/h, the infusion rate of glucose/saline was lowered to 80 mL/h.
Evaluations of systolic and diastolic blood pressure, pulse rate, respiratory rate, and temperature is performed throughout the study. Pulse and blood pressure is taken after 5 minutes in the supine position. Automated oscillometric blood pressures and pulse rate is measured using a Dash 3000,
Subjective assessment of feeling sick is recorded by the subjects during the first part of the study (IV LPS infusion) on a numeric rating scale (NRS) electronically.
(§8) Throughout the Figures and tables related to the clinical study test results, the following abbreviations and its definitions are used: • IV LPS Placebo means subjects who have been challenged with intravenous LPS and thereafter received placebo intravenously as described above. • Sevuparin 0.3/0.08 means (sevuparin low dose): loading bolus dose of 0.3 mg/kg bodyweight, followed by 0.08 mg/kg/h intravenously; • Sevuparin 1/0.25 means (sevuparin intermediate dose): loading dose of 1 mg/kg bodyweight, followed by 0.25 mg/kg/h intravenously; • Sevuparin 3/0.75 means (sevuparin high dose): loading dose of 3 mg/kg bodyweight, followed by 0.75 mg/kg/h intravenously.

[2] = tested on: inflammatory biomarkers cytokines and C-Reactive Protein (CRP); conditions: for C-Reactive Protein / IL-6 in plasma / IL-8 in plasma / IL-10 in plasma / TNF-α in plasma: LS Means, IV LPS 1 ng/kg
Description: as §1, §2
(§9) • Leucocyte differential • Cytokines (including IL-6, IL-8, IL-10 and TNF-α) • Flow cytometry (Neutrophils, monocyte subsets, T cells, B cells, NK cells, dendritic cells, including neutrophil extracellular traps) • Explorative biomarkers: acute phase reactants and components measurable in blood, serum and plasma of relevance for septic inflammation may be measured and reported separately.
as §3, §4, §5, §6, §7
Blood is collected at time points as shown in Table 1 below for the assessment of cytokines. Venous blood (4 mL) is collected in K2EDTA tubes. Plasma is collected after centrifugation at 2000×g for 20 minutes at room temperature and stored at −80° C., in 3×0.5 ml aliquots until analysis. Samples are analysed by Ardena Laboratories Assen.
as §8

[3] = tested on: healthy volunteers; conditions: for Basophil count / Eosinophil count / Lymphocyte count / Monocyte count / Neutrophil count: LS Means, IV LPS 1 ng/kg
Description: as §1, §2, §9, §3, §4, §5, §6, §7
Blood and other biological samples are collected for the following clinical laboratory tests: Haematology; Chemistry and electrolytes; Glucose; […] (after 4-hours fasting); […] (conjugated bilirubin is reported only when total bilirubin is outside the reference range); Virology; Urinalysis; Pregnancy (for women, serum pregnancy test is performed at screening and urine pregnancy test at other visits when scheduled, and if pregnancy is suspected during the study); Alcohol screening; and Urine drug screening.

[4] = IV LPS, in words, all doses vs placebo
[5] = sevuparin 0.3/0.08 (loading bolus 0.3 mg/kg, then 0.08 mg/kg/h IV)
[6] = sevuparin 1.0/0.25 (loading 1 mg/kg, then 0.25 mg/kg/h IV)
[7] = sevuparin 3.0/0.75 (loading 3 mg/kg, then 0.75 mg/kg/h IV)

sevuparin
respiratory rate compared to placebo ([1]; FIG. 2, IV LPS, highest intravenously administered dose of sevuparin): improvement of the respiratory rate
therapeutic impact on body temperature [1, 4]: did not have any therapeutic impact
therapeutic impact on diastolic blood pressure [1, 4]: did not have any therapeutic impact
therapeutic impact on feeling sick [1, 4]: did not have any therapeutic impact
therapeutic impact on heart rate [1, 4]: did not have any therapeutic impact
therapeutic impact on systolic blood pressure [1, 4]: did not have any therapeutic impact
Body temperature [1, 5]: 37.13
Diastolic blood pressure [1, 5]: 63.5 mm Hg
Heart rate [1, 5]: 69.7 bpm
NRS feeling sick [1, 5]: 1.9
Systolic blood pressure [1, 5]: 115.5 mm Hg
Body temperature [1, 6]: 36.93
Diastolic blood pressure [1, 6]: 63.9 mm Hg
Heart rate [1, 6]: 71.1 bpm
NRS feeling sick [1, 6]: 1.9
Systolic blood pressure [1, 6]: 117.3 mm Hg
Body temperature [1, 7]: 36.97
Diastolic blood pressure [1, 7]: 62.7 mm Hg
Heart rate [1, 7]: 70.5 bpm
NRS feeling sick [1, 7]: 2.0
Systolic blood pressure [1, 7]: 114.0 mm Hg
therapeutic effect on C-Reactive Protein (CRP) ([2]; IV LPS, in words, vs placebo): no therapeutic effect
therapeutic effect on the inflammatory biomarkers cytokines ([2]; IV LPS, in words, vs placebo): no therapeutic effect
C-Reactive Protein [2, 5]: 10.893 mg/mL
IL-6 in plasma [2, 5]: 19.587 pg/mL
IL-8 in plasma [2, 5]: 19.393 pg/mL
IL-10 in plasma [2, 5]: 8.125 pg/mL
TNF-α in plasma [2, 5]: 5.574 pg/mL
C-Reactive Protein [2, 6]: 11.080 mg/mL
IL-6 in plasma [2, 6]: 16.012 pg/mL
IL-8 in plasma [2, 6]: 19.843 pg/mL
IL-10 in plasma [2, 6]: 11.825 pg/mL
TNF-α in plasma [2, 6]: 5.415 pg/mL
C-Reactive Protein [2, 7]: 11.853 mg/mL
IL-6 in plasma [2, 7]: 13.712 pg/mL
IL-8 in plasma [2, 7]: 17.820 pg/mL
IL-10 in plasma [2, 7]: 7.527 pg/mL
TNF-α in plasma [2, 7]: 5.039 pg/mL
change in basophils compared to placebo control ([3]; IV LPS, in words): dose dependent pronounced increase
change in neutrophils compared to placebo control ([3]; IV LPS, in words): dose dependent pronounced increase
change in lymphocytes compared to placebo control ([3]; IV LPS, in words, FIG. 1): dose dependent pronounced increase
Basophil count [3, 5]: 0.029 E9/L
Eosinophil count [3, 5]: 0.114 E9/L
Lymphocyte count [3, 5]: 1.046 E9/L
Monocyte count [3, 5]: 0.335 E9/L
Neutrophil count [3, 5]: 6.650 E9/L
Basophil count [3, 6]: 0.032 E9/L
Eosinophil count [3, 6]: 0.105 E9/L
Lymphocyte count [3, 6]: 1.136 E9/L
Monocyte count [3, 6]: 0.339 E9/L
Neutrophil count [3, 6]: 5.788 E9/L
Basophil count [3, 7]: 0.039 E9/L
Eosinophil count [3, 7]: 0.117 E9/L
Lymphocyte count [3, 7]: 1.369 E9/L
Monocyte count [3, 7]: 0.376 E9/L
Neutrophil count [3, 7]: 7.073 E9/L
